Reference: PubChem BioAssay (NCI)
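These data come from cells grown in 96-well plates and exposed to compound for 48 hours at five concentrations. At the GI50, growth is halved. Definition used: TGI = concentration required for complete inhibition of growth.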

Tests used:
Experiment in all cases: growth of human tumour cells (NCI), 48 h
TK-10 renal = test system: TK-10 renal
A549 NSCLC = test system: A549 NSCLC
LOX IMVI melanoma = test system: LOX IMVI melanoma
OVCAR-3 ovarian = test system: OVCAR-3 ovarian
OVCAR-8 ovarian = test system: OVCAR-8 ovarian
SR leukemia = test system: SR leukemia
HOP-92 NSCLC = test system: HOP-92 NSCLC
NCI-H23 lung = test system: NCI-H23 lung
SF-268 CNS = test system: SF-268 CNS
MDA-MB-468 breast = test system: MDA-MB-468 breast
MCF7 breast = test system: MCF7 breast
MOLT-4 leukemia = test system: MOLT-4 leukemia
MDA-MB-231 breast = test system: MDA-MB-231 breast
M14 melanoma = test system: M14 melanoma
786-0 renal = test system: 786-0 renal
U251 CNS = test system: U251 CNS
NCI/ADR-RES ovarian = test system: NCI/ADR-RES ovarian
EKVX NSCLC = test system: EKVX NSCLC
MALME-3M melanoma = test system: MALME-3M melanoma
ACHN renal = test system: ACHN renal
PC-3 prostate = test system: PC-3 prostate
OVCAR-5 ovarian = test system: OVCAR-5 ovarian
SF-295 CNS = test system: SF-295 CNS
NCI-H522 lung = test system: NCI-H522 lung
UO-31 renal = test system: UO-31 renal
OVCAR-4 ovarian = test system: OVCAR-4 ovarian
NCI-H460 lung = test system: NCI-H460 lung
UACC-257 melanoma = test system: UACC-257 melanoma
MDA-MB-435 = test system: MDA-MB-435
HCT-116 colon = test system: HCT-116 colon
IGROV1 ovarian = test system: IGROV1 ovarian
HL-60(TB) leukemia = test system: HL-60(TB) leukemia
SK-MEL-2 melanoma = test system: SK-MEL-2 melanoma
BT-549 breast = test system: BT-549 breast
RXF 393 renal = test system: RXF 393 renal
HCT-15 colon = test system: HCT-15 colon
HT29 colon = test system: HT29 colon
UACC-62 melanoma = test system: UACC-62 melanoma
SK-OV-3 ovarian = test system: SK-OV-3 ovarian
NCI-H226 lung = test system: NCI-H226 lung
HCC-2998 colon = test system: HCC-2998 colon
SNB-75 CNS = test system: SNB-75 CNS
SK-MEL-28 melanoma = test system: SK-MEL-28 melanoma
CCRF-CEM leukemia = test system: CCRF-CEM leukemia
KM12 colon = test system: KM12 colon
SK-MEL-5 melanoma = test system: SK-MEL-5 melanoma
SF-539 CNS = test system: SF-539 CNS
K-562 leukemia = test system: K-562 leukemia
SN12C renal = test system: SN12C renal
HOP-62 NSCLC = test system: HOP-62 NSCLC
A498 renal = test system: A498 renal
SW-620 colon = test system: SW-620 colon
HS 578T breast = test system: HS 578T breast
RPMI-8226 leukemia = test system: RPMI-8226 leukemia
DU-145 prostate = test system: DU-145 prostate
CAKI-1 renal = test system: CAKI-1 renal
COLO 205 colon = test system: COLO 205 colon
SNB-19 CNS = test system: SNB-19 CNS
T-47D breast = test system: T-47D breast

SMILES: CN1C(=O)N(C)C2SC(N/N=C/c3cccs3)=NC21 (stereo not drawn)
- GI50 (TK-10 renal): > 100 µM
- TGI (TK-10 renal): > 100 µM
- GI50 (A549 NSCLC): 9.64 µM
- TGI (A549 NSCLC): > 100 µM
- GI50 (LOX IMVI melanoma): 5.26 µM
- TGI (LOX IMVI melanoma): > 100 µM
- GI50 (OVCAR-3 ovarian): 3.43 µM
- TGI (OVCAR-3 ovarian): 30.8 µM
- GI50 (OVCAR-8 ovarian): 14.5 µM
- TGI (OVCAR-8 ovarian): > 100 µM
- GI50 (SR leukemia): 2.47 µM
- TGI (SR leukemia): > 100 µM
- GI50 (HOP-92 NSCLC): > 100 µM
- TGI (HOP-92 NSCLC): > 100 µM
- GI50 (NCI-H23 lung): 17.7 µM
- TGI (NCI-H23 lung): > 100 µM
- GI50 (SF-268 CNS): 14.3 µM
- TGI (SF-268 CNS): > 100 µM
- GI50 (MDA-MB-468 breast): 1.89 µM
- TGI (MDA-MB-468 breast): 5.47 µM
- GI50 (MCF7 breast): 3.98 µM
- TGI (MCF7 breast): > 100 µM
- GI50 (MOLT-4 leukemia): 4.26 µM
- TGI (MOLT-4 leukemia): > 100 µM
- GI50 (MDA-MB-231 breast): 4.89 µM
- TGI (MDA-MB-231 breast): 88.3 µM
- GI50 (M14 melanoma): 3.32 µM
- TGI (M14 melanoma): > 100 µM
- GI50 (786-0 renal): 14.3 µM
- TGI (786-0 renal): > 100 µM
- GI50 (U251 CNS): 4.46 µM
- TGI (U251 CNS): > 100 µM
- GI50 (NCI/ADR-RES ovarian): 3.91 µM
- TGI (NCI/ADR-RES ovarian): 38.2 µM
- GI50 (EKVX NSCLC): 7.93 µM
- TGI (EKVX NSCLC): > 100 µM
- GI50 (MALME-3M melanoma): 3.83 µM
- TGI (MALME-3M melanoma): > 100 µM
- GI50 (ACHN renal): 12 µM
- TGI (ACHN renal): > 100 µM
- GI50 (PC-3 prostate): 6.77 µM
- TGI (PC-3 prostate): > 100 µM
- GI50 (OVCAR-5 ovarian): 6.45 µM
- TGI (OVCAR-5 ovarian): 86.2 µM
- GI50 (SF-295 CNS): 3.92 µM
- TGI (SF-295 CNS): > 100 µM
- GI50 (NCI-H522 lung): 2.74 µM
- TGI (NCI-H522 lung): 10.4 µM
- GI50 (UO-31 renal): 9.9 µM
- TGI (UO-31 renal): > 100 µM
- GI50 (OVCAR-4 ovarian): > 100 µM
- TGI (OVCAR-4 ovarian): > 100 µM
- GI50 (NCI-H460 lung): 3.98 µM
- TGI (NCI-H460 lung): > 100 µM
- GI50 (UACC-257 melanoma): > 100 µM
- TGI (UACC-257 melanoma): > 100 µM
- GI50 (MDA-MB-435): 1.58 µM
- TGI (MDA-MB-435): 4.18 µM
- GI50 (HCT-116 colon): 3.98 µM
- TGI (HCT-116 colon): > 100 µM
- GI50 (IGROV1 ovarian): 5.58 µM
- TGI (IGROV1 ovarian): > 100 µM
- GI50 (HL-60(TB) leukemia): 2.39 µM
- TGI (HL-60(TB) leukemia): 7.36 µM
- GI50 (SK-MEL-2 melanoma): 2.5 µM
- TGI (SK-MEL-2 melanoma): 7.27 µM
- GI50 (BT-549 breast): 3.61 µM
- TGI (BT-549 breast): > 100 µM
- GI50 (RXF 393 renal): 2.09 µM
- TGI (RXF 393 renal): 17.6 µM
- GI50 (HCT-15 colon): 3.92 µM
- TGI (HCT-15 colon): > 100 µM
- GI50 (HT29 colon): 3.03 µM
- TGI (HT29 colon): 11.5 µM
- GI50 (UACC-62 melanoma): 3.69 µM
- TGI (UACC-62 melanoma): > 100 µM
- GI50 (SK-OV-3 ovarian): 7.74 µM
- TGI (SK-OV-3 ovarian): 92 µM
- GI50 (NCI-H226 lung): 7.53 µM
- TGI (NCI-H226 lung): > 100 µM
- GI50 (HCC-2998 colon): 8.21 µM
- TGI (HCC-2998 colon): 71.9 µM
- GI50 (SNB-75 CNS): 1.66 µM
- TGI (SNB-75 CNS): 7.61 µM
- GI50 (SK-MEL-28 melanoma): 6.38 µM
- TGI (SK-MEL-28 melanoma): > 100 µM
- GI50 (CCRF-CEM leukemia): 3.96 µM
- TGI (CCRF-CEM leukemia): > 100 µM
- GI50 (KM12 colon): 4.97 µM
- TGI (KM12 colon): > 100 µM
- GI50 (SK-MEL-5 melanoma): 2.87 µM
- TGI (SK-MEL-5 melanoma): > 100 µM
- GI50 (SF-539 CNS): 3.42 µM
- TGI (SF-539 CNS): 16.9 µM
- GI50 (K-562 leukemia): 2.96 µM
- TGI (K-562 leukemia): > 100 µM
- GI50 (SN12C renal): > 100 µM
- TGI (SN12C renal): > 100 µM
- GI50 (HOP-62 NSCLC): 7.45 µM
- TGI (HOP-62 NSCLC): > 100 µM
- GI50 (A498 renal): 22.7 µM
- TGI (A498 renal): > 100 µM
- GI50 (SW-620 colon): 3.68 µM
- TGI (SW-620 colon): > 100 µM
- GI50 (HS 578T breast): 2.63 µM
- TGI (HS 578T breast): 9.74 µM
- GI50 (RPMI-8226 leukemia): 9.1 µM
- TGI (RPMI-8226 leukemia): > 100 µM
- GI50 (DU-145 prostate): 30 µM
- TGI (DU-145 prostate): > 100 µM
- GI50 (CAKI-1 renal): 4.12 µM
- TGI (CAKI-1 renal): > 100 µM
- GI50 (COLO 205 colon): 4.47 µM
- TGI (COLO 205 colon): 24.1 µM
- GI50 (SNB-19 CNS): 11.4 µM
- TGI (SNB-19 CNS): > 100 µM
- GI50 (T-47D breast): 4.56 µM
- TGI (T-47D breast): > 100 µM
